Laboratory results published in the Kinase Knowledgebase extract (Sharma et al. 2016).

Key:
PIK3CD (Human) [1] = biological target: PIK3CD (Human) (UniProt O00329); experiment: Cell-Based Assay; conditions: raji
PIK3CB (Human) = PIK3CB (Human) (UniProt P42338); experiment: Enzyme Assay
PIK3CD (Human) [2] = biological target: PIK3CD (Human) (UniProt O00329); experiment: Enzyme Assay
PIK3CG (human) = PIK3CG (human) (UniProt P48736); experiment: Enzyme Assay
PIK3CG (human), sequence (P48736 whole entry, looked up): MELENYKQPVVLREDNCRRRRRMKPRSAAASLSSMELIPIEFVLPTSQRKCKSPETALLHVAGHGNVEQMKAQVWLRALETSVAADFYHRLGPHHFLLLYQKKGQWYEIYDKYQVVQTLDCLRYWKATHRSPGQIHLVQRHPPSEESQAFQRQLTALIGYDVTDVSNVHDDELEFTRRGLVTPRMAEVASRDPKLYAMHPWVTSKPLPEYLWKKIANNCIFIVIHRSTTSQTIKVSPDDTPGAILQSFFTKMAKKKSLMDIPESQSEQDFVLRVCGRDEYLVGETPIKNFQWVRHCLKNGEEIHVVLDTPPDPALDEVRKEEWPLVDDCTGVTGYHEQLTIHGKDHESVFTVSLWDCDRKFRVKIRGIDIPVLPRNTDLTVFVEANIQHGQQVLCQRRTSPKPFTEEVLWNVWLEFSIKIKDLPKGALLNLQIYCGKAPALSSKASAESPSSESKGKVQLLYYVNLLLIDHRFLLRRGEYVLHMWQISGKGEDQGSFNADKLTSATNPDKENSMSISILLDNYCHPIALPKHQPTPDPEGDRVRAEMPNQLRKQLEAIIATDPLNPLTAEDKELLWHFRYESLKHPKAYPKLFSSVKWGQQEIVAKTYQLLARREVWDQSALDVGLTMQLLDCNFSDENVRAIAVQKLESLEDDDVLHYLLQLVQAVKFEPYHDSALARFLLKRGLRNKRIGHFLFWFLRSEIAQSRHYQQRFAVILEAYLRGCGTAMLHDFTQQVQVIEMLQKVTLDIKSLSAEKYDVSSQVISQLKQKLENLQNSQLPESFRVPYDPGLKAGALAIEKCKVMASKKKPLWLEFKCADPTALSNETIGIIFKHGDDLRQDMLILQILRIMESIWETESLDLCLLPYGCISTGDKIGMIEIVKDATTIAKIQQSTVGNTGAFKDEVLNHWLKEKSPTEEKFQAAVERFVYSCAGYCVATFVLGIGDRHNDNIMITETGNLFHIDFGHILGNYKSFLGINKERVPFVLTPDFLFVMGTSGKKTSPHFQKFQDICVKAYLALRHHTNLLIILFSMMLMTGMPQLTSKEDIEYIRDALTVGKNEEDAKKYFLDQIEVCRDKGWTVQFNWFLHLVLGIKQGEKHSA

PIK3CB (Human), sequence (P42338 whole entry, looked up): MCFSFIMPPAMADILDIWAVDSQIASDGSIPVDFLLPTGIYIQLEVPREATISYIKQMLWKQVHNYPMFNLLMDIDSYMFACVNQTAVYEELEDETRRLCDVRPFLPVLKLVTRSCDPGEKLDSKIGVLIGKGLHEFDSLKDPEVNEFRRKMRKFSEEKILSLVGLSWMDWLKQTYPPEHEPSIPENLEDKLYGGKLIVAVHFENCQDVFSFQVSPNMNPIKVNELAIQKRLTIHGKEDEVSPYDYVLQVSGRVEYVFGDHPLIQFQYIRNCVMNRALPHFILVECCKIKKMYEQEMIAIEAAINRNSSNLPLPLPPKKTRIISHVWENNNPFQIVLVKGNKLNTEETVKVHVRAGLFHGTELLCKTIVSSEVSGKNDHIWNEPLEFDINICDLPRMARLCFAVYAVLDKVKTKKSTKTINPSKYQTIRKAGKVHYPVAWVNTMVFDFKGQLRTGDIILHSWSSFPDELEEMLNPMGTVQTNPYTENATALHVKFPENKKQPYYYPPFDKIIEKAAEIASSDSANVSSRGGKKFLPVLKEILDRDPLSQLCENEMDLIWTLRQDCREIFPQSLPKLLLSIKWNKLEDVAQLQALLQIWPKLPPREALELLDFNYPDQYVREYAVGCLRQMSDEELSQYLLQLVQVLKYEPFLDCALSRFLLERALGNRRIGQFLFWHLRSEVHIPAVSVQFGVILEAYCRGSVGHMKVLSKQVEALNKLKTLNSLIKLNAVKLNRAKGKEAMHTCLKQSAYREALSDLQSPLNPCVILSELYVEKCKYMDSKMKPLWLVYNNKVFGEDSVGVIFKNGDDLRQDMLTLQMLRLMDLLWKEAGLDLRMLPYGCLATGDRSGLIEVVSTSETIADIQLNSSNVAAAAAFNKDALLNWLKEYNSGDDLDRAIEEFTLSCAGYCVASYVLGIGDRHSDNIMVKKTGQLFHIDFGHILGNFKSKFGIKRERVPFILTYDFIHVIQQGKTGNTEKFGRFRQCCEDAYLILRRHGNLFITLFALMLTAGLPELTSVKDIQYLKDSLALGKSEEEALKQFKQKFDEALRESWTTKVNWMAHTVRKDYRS
PIK3CD (Human), sequence (O00329 whole entry, looked up): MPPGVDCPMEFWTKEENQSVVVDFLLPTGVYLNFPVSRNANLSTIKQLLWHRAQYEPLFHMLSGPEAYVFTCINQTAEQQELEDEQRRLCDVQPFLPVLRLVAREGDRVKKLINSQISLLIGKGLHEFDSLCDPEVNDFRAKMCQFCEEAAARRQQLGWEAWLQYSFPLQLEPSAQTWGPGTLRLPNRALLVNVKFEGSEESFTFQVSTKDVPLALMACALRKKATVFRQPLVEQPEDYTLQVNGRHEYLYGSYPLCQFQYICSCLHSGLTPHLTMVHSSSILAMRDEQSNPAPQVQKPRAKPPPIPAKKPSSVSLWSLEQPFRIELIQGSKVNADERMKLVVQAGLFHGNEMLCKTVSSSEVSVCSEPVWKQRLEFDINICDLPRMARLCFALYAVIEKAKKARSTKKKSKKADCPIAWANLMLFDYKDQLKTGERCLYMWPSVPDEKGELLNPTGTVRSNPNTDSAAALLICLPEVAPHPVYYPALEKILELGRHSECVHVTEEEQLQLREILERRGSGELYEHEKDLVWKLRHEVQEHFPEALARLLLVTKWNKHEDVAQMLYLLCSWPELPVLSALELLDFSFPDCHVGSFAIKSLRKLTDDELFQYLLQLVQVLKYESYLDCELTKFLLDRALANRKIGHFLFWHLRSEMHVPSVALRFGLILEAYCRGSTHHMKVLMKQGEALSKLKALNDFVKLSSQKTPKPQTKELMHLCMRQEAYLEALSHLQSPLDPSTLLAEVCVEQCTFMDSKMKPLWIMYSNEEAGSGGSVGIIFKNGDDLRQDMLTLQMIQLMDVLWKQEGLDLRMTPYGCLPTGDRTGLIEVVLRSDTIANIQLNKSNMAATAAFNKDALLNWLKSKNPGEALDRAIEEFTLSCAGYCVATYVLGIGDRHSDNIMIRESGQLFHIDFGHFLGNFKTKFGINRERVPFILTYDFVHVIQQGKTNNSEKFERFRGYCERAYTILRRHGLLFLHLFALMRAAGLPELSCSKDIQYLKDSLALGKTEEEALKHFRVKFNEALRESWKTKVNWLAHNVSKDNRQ

Row | IC50 (PIK3CD (Human) [1]) | IC50 (PIK3CB (Human)) | IC50 (PIK3CD (Human) [2]) | IC50 (PIK3CG (human)) | SMILES
1 | 1 to 100 nM | 5000 to 10000 nM | 5000 to 10000 nM | 100 to 500 nM | C/C=C/c1cccc2cc([C@H](C)NC(=O)c3c(N)nn4cccnc34)n(-c3ccccc3)c(=O)c12
2 | 100 to 500 nM | 1000 to 5000 nM | 1000 to 5000 nM | 1 to 100 nM | C[C@H](O)C#Cc1cccc2cc([C@H](C)NC(=O)c3c(N)nn4cccnc34)n(-c3ccccc3)c(=O)c12
3 | 100 to 500 nM | 5000 to 10000 nM | 5000 to 10000 nM | 100 to 500 nM | Cc1ncc(C#Cc2cccc3cc([C@H](C)NC(=O)c4c(N)nn5cccnc45)n(-c4ccccc4)c(=O)c23)s1
4 | 100 to 500 nM | 5000 to 10000 nM | 5000 to 10000 nM | 100 to 500 nM | C[C@H](NC(=O)c1c(N)nn2cccnc12)c1cc2cccc(C#Cc3ccn(C)n3)c2c(=O)n1-c1ccccc1
5 | 1000 to 10000 nM | 5000 to 10000 nM | 5000 to 10000 nM | 1000 to 5000 nM | C[C@H](NC(=O)c1c(N)nn2cccnc12)c1cc2cccc(C#CC(C)(C)C)c2c(=O)n1-c1ccccc1
6 | 100 to 500 nM | 5000 to 10000 nM | 5000 to 10000 nM | 100 to 500 nM | Cc1scnc1C#Cc1cccc2cc([C@H](C)NC(=O)c3c(N)nn4cccnc34)n(-c3ccccc3)c(=O)c12
7 | 1 to 100 nM | 500 to 1000 nM | 1000 to 5000 nM | 500 to 1000 nM | C#Cc1cccc2nc([C@H](C)NC(=O)c3c(N)nn4cccnc34)n(C)c(=O)c12
8 | 1000 to 10000 nM | 5000 to 10000 nM | 5000 to 10000 nM | 1000 to 5000 nM | C[C@H](NC(=O)c1c(N)nn2cccnc12)c1cc2cccc(NC(=O)c3cnn(C)c3)c2c(=O)n1-c1ccccc1
9 | 500 to 1000 nM | 5000 to 10000 nM | 5000 to 10000 nM | 1 to 100 nM | Cc1ccc(C#Cc2cccc3cc([C@H](C)NC(=O)c4c(N)nn5cccnc45)n(-c4ccccc4)c(=O)c23)cn1
10 | 100 to 500 nM | 5000 to 10000 nM | 5000 to 10000 nM | 100 to 500 nM | C[C@H](NC(=O)c1c(N)nn2cccnc12)c1cc2cccc(C#CCN3CCN(C)CC3)c2c(=O)n1-c1ccccc1
11 | 1000 to 10000 nM | 5000 to 10000 nM | 5000 to 10000 nM | 500 to 1000 nM | C[C@H](NC(=O)c1c(N)nn2cccnc12)c1cc2cccc(C#CC3CCNCC3)c2c(=O)n1-c1ccccc1
12 | 100 to 500 nM | 5000 to 10000 nM | 5000 to 10000 nM | 100 to 500 nM | C[C@H](NC(=O)c1c(N)nn2cccnc12)c1cc2cccc(C#Cc3cc[nH]c(=O)c3)c2c(=O)n1-c1ccccc1
13 | 1000 to 10000 nM | 5000 to 10000 nM | 5000 to 10000 nM | 100 to 500 nM | C[C@H](NC(=O)c1cnn2cccnc12)c1cc2cccc(C#Cc3cnn(C)c3)c2c(=O)n1-c1ccccc1
14 | 1 to 100 nM | 1000 to 5000 nM | 500 to 1000 nM | 1 to 100 nM | C[C@H](NC(=O)c1c(N)nn2cccnc12)c1cc2cccc(C#CCO)c2c(=O)n1-c1ccccc1
15 | 1000 to 10000 nM | 5000 to 10000 nM | 5000 to 10000 nM | 100 to 500 nM | C[C@H](NC(=O)c1c(N)nn2cccnc12)c1cc2cccc(C#CCN3CCOCC3)c2c(=O)n1-c1ccccc1
16 | 1000 to 10000 nM | 5000 to 10000 nM | 5000 to 10000 nM | 100 to 500 nM | COC(C)C#Cc1cccc2cc([C@H](C)NC(=O)c3c(N)nn4cccnc34)n(-c3ccccc3)c(=O)c12 (some centres not stated)
17 | 1000 to 10000 nM | 5000 to 10000 nM | 5000 to 10000 nM | 500 to 1000 nM | Cc1ccncc1C#Cc1cccc2cc([C@H](C)NC(=O)c3c(N)nn4cccnc34)n(-c3ccccc3)c(=O)c12
18 | 100 to 500 nM | 1000 to 5000 nM | 5000 to 10000 nM | 1000 to 5000 nM | C[C@H](NC(=O)c1c(N)nn2cccnc12)c1cc2cccc(C#Cc3cncn3C)c2c(=O)n1C1CC1
19 | 1 to 100 nM | 5000 to 10000 nM | 1000 to 5000 nM | 1 to 100 nM | C#Cc1cccc2nc([C@H](C)NC(=O)c3c(N)nn4cccnc34)n(-c3ccc(F)cc3)c(=O)c12
20 | 100 to 500 nM | 1000 to 5000 nM | 1000 to 5000 nM | 1 to 100 nM | C[C@H](NC(=O)c1c(N)nn2cccnc12)c1cc2cccc(C#Cc3cocn3)c2c(=O)n1-c1ccccc1
21 | 1000 to 10000 nM | 5000 to 10000 nM | 5000 to 10000 nM | 1000 to 5000 nM | Cc1ncsc1C#Cc1cccc2cc([C@H](C)NC(=O)c3c(N)nn4cccnc34)n(-c3ccccc3)c(=O)c12
22 | 100 to 500 nM | 1000 to 5000 nM | 5000 to 10000 nM | 1 to 100 nM | C[C@H](NC(=O)c1c(N)nn2cccnc12)c1cc2cccc(C#Cc3cn[nH]c3)c2c(=O)n1-c1ccccc1

Row | IC50 (PIK3CD (Human) [1]) | IC50 (PIK3CB (Human)) | IC50 (PIK3CD (Human) [2]) | IC50 (PIK3CG (human)) | SMILES
23 | 500 to 1000 nM | 5000 to 10000 nM | 5000 to 10000 nM | 1000 to 5000 nM | C[C@H](NC(=O)c1c(N)nn2cccnc12)c1cc2cccc(C#CC(F)(F)F)c2c(=O)n1-c1ccccc1
24 | 500 to 1000 nM | 1000 to 5000 nM | 5000 to 10000 nM | 1000 to 5000 nM | C[C@H](NC(=O)c1c(N)nn2cccnc12)c1nc2cccc(C#Cc3cnn(C)c3)c2c(=O)n1C
25 | 500 to 1000 nM | 5000 to 10000 nM | 5000 to 10000 nM | 100 to 500 nM | C[C@H](NC(=O)c1c(N)nn2cccnc12)c1cc2cccc(C#Cc3ccnn3C)c2c(=O)n1-c1ccccc1
26 | 100 to 500 nM | 1000 to 5000 nM | 1000 to 5000 nM | 1 to 100 nM | COCC#Cc1cccc2cc([C@H](C)NC(=O)c3c(N)nn4cccnc34)n(-c3ccccc3)c(=O)c12
27 | 1000 to 10000 nM | 5000 to 10000 nM | 5000 to 10000 nM | 500 to 1000 nM | C[C@H](NC(=O)c1c(N)nn2cccnc12)c1cc2cccc(C#CC(C)(C)N)c2c(=O)n1-c1ccccc1
28 | 1000 to 10000 nM | 5000 to 10000 nM | 5000 to 10000 nM | 1000 to 5000 nM | Cc1ncccc1C#Cc1cccc2cc([C@H](C)NC(=O)c3c(N)nn4cccnc34)n(-c3ccccc3)c(=O)c12
29 | 100 to 500 nM | 5000 to 10000 nM | 5000 to 10000 nM | 500 to 1000 nM | C[C@H](NC(=O)c1c(N)nn2cccnc12)c1cc2cccc(C#CCN(C)C)c2c(=O)n1-c1ccccc1
30 | 1 to 100 nM | 1000 to 5000 nM | 1000 to 5000 nM | 1 to 100 nM | C#Cc1cccc2nc([C@H](C)NC(=O)c3nccnc3N)n(-c3ccc(F)cc3)c(=O)c12
31 | 500 to 1000 nM | 5000 to 10000 nM | 5000 to 10000 nM | 500 to 1000 nM | CCOC(C#Cc1cccc2cc([C@H](C)NC(=O)c3c(N)nn4cccnc34)n(-c3ccccc3)c(=O)c12)OCC
32 | 500 to 1000 nM | 5000 to 10000 nM | 5000 to 10000 nM | 100 to 500 nM | C[C@H](NC(=O)c1c(N)nn2cccnc12)c1cc2cccc(C#Cc3ccccn3)c2c(=O)n1-c1ccccc1
33 | 500 to 1000 nM | 5000 to 10000 nM | 5000 to 10000 nM | 500 to 1000 nM | C[C@H](NC(=O)c1c(N)nn2cccnc12)c1cc2cccc(C#CC3CCN(S(C)(=O)=O)CC3)c2c(=O)n1-c1ccccc1
34 | 1000 to 10000 nM | 5000 to 10000 nM | 5000 to 10000 nM | 1000 to 5000 nM | Cc1cnc(C(=O)N[C@@H](C)c2cc3cccc(C#Cc4cnn(C)c4)c3c(=O)n2-c2ccccc2)c(N)n1
35 | 500 to 1000 nM | 5000 to 10000 nM | 5000 to 10000 nM | 100 to 500 nM | Cc1c(C#Cc2cccc3cc([C@H](C)NC(=O)c4c(N)nn5cccnc45)n(-c4ccccc4)c(=O)c23)cnn1C
36 | 100 to 500 nM | 1000 to 5000 nM | 1000 to 5000 nM | 1 to 100 nM | C[C@H](NC(=O)c1c(N)nn2cccnc12)c1cc2cccc(C#Cc3cscn3)c2c(=O)n1-c1ccccc1
37 | 100 to 500 nM | 5000 to 10000 nM | 5000 to 10000 nM | 100 to 500 nM | Cc1csc(C#Cc2cccc3cc([C@H](C)NC(=O)c4c(N)nn5cccnc45)n(-c4ccccc4)c(=O)c23)n1
38 | 100 to 500 nM | 5000 to 10000 nM | 5000 to 10000 nM | 100 to 500 nM | C[C@H](NC(=O)c1c(N)nn2cccnc12)c1cc2cccc(C#Cc3ccn[nH]3)c2c(=O)n1-c1ccccc1
39 | 100 to 500 nM | 5000 to 10000 nM | 5000 to 10000 nM | 100 to 500 nM | C#Cc1cccc2nc([C@H](C)NC(=O)c3c(N)nn4cccnc34)n(-c3ccc(F)c(F)c3)c(=O)c12
40 | 1000 to 10000 nM | 5000 to 10000 nM | 1000 to 5000 nM | 500 to 1000 nM | C[C@H](NC(=O)c1c(N)nn2cccnc12)c1cc2cccc(C#CC3CNC3)c2c(=O)n1-c1ccccc1
41 | 1000 to 10000 nM | 5000 to 10000 nM | 5000 to 10000 nM | 1000 to 5000 nM | Cc1nn(C)c(C)c1C#Cc1cccc2cc([C@H](C)NC(=O)c3c(N)nn4cccnc34)n(-c3ccccc3)c(=O)c12
42 | 1 to 100 nM | 1000 to 5000 nM | 1000 to 5000 nM | 100 to 500 nM | C[C@H](NC(=O)c1nccnc1N)c1cc2cccc(C#Cc3cnn(C)c3)c2c(=O)n1-c1ccccc1
43 | 100 to 500 nM | 1000 to 5000 nM | 1000 to 5000 nM | 1000 to 5000 nM | C[C@H](NC(=O)c1c(N)nn2cccnc12)c1cc2cccc(C#CC3CC3)c2c(=O)n1C1CC1
